Data on two compounds can be found in publication PMC4382154, “Screening of the Pan-African Natural Product Library Identifies Ixoratannin A-2 and Boldine as Novel HIV-1 Inhibitors” (PLoS ONE, 2015).

The subject of one series is HIV-1RT. Briefly: microbe, parasite or virus in culture. Particulars: for EC50: Human immunodeficiency virus 1, CEM-GXR, 96 h, read-out: EC50 HIV-1RT. It counts as cell-based.
The nature of series [1]: Cell toxicity in HIV-1 infected CEM-GXR cultures (forward/side scatter). The class given is cell-based. To be noted: human, HIV-1NL4-3-infected CEM-GXR cells (CD4+ T-lymphocyte line), Day 4. The protocol:
CEM-GXR cells are an immortalized CD4+ T-lymphocyte line engineered that naturally express the HIV-1 coreceptor CXCR4 and have been further engineered to express the HIV-1 co-receptor CCR5 and a Tat-driven LTR-GFP expression cassette. As such, intracellular GFP expression indicates HIV-1 infection. Cultures of 10^5 CEM-GXR cells were seeded into 96-well plates with RPMI-1640 media (Sigma) supplemented with penicillin/streptomycin plus 20% fetal calf serum (R20+), infected with HIV-1 at a multiplicity of infection of 0.03 (to achieve 3% infected cells on Day 2), and incubated at 37°C and 5% CO2. 24 hours later, cells were pelleted at 750 g and resuspended in R20+ containing compound or 0.1% DMSO. […] Cells were then incubated at 37°C and 5% CO2 for an additional 72 h. 5,000 cells from each culture were measured for cell toxicity and GFP expression by flow cytometry. Flow cytometry data were analyzed using FlowJo v. 8.8.7 software (FlowJo LLC, Ashland, OR). […] Background GFP expression in uninfected cultures was set at 0.05% GFP-positive cells. For each experiment, all data points were obtained in triplicate. All data are reported as the mean ± s.e.m. from at least 3 independent experiments performed with different virus stocks and/or performed on different days. However, all experiments that compare HIV-1NL4-3 and mutant HIV-1 were performed in parallel. EC50 and CC50 values for each compound were calculated from at least four concentrations. Statistical analyses were performed using Student’s unpaired t test, with a p value < 0.05 plus a Bonferroni correction to adjust for multiple comparisons considered significant.
To assess the effects of these eight compounds on cell viability and HIV-1 replication, we infected a GFP-reporter CEM CD4+ T cell line (CEM-GXR) with the NL4-3 strain of HIV-1 (HIV-1NL4-3). Briefly, cells were infected with HIV-1NL4-3 at a multiplicity of infection of 0.03 (Day 0), followed by removal of HIV-1 and addition of compound (or 0.1% DMSO vehicle control) 24 hours later (Day 1) and incubation for an additional 72 hours to allow HIV-1 spread (Days 2–4). On Days 2 and/or 4, the percent HIV-1 infected (i.e., GFP-expressing) cells was measured by flow cytometry. Cell viability was assessed by measuring the percentage of cells displaying normal forward- and side-scatter parameters in drug-treated, HIV-1 infected cultures compared to 0.1% DMSO-treated, HIV-1 infected control cultures. […] HIV-1NL4-3 replication was unaffected by the presence of 0.1% DMSO vehicle control (Fig. 2B).

The subject of the next series is HIV-1NL4-3. The experiment in a line: HIV-1 replication assay in PBMCs (p24Gag ELISA). To be noted: Day 12. The class given is cell-based. The protocol: PBMCs from HIV-1 negative subjects, purchased commercially (StemCell Technologies, Vancouver, Canada), were maintained in RPMI-1640 media (Sigma) supplemented with penicillin/streptomycin plus 10% fetal calf serum (R10+). 72 h prior to viral infection, PBMCs were stimulated by addition of 5 μg/mL phytohaemaglutanin (PHA) (Day 0) and maintained in R10+ medium supplemented with 100 units/mL human IL-2. At Day 3 following cellular activation, 3x10^5 cells were infected with HIV-1NL4-3 at a multiplicity of infection of 0.003 (0.3% infected cells) and incubated at 37°C for 6h, followed by wash and re-suspension in fresh R10+ medium supplemented with 100 units/mL human IL-2 and with or without compounds at defined concentrations. Culture supernatants were collected and replaced with fresh medium supplemented with human IL-2 every 3 days (i.e., Days 6, 9, and 12) with or without fresh compounds. Viral replication at day 12 was monitored by measuring cell culture supernatant levels of p24^Gag by ELISA (XpressBio, Frederick, MD) following manufacturer’s instructions.

The subject of a further series is hERG potassium channel. More on the design: method as in PMID 24963621. Particulars: two electrode voltage clamp, Xenopus oocytes; read-out: IC50 hERG potassium channel currents; cited from earlier work.
Series [2] can be described thus: PBMC cytotoxicity (ViaCount Assay). It counts as cell-based. To be noted: human, all assessed concentrations, read-out: PBMC viability relative to PBMCs in 0.1% DMSO. The protocol: Cytotoxicity was determined by ViaCount Assay (Millipore). Briefly, Day 3 PHA-activated PBMCs (3*10^5) were cultured in R10+ supplemented with 100 units/mL human IL-2 in the presence of 0.1% DMSO or compounds at defined concentrations. At Day 5, 15 μL of each PBMC culture was mixed with Guava ViaCount Reagent at a 1:10 dilution. Data were collected using a Guava EasyCyte HT Flow Cytometer (Millipore).

Molecules are shown by their SMILES. Read-outs that look alike come from different tables or passages of the source.

Procedure for HIV-1RT: CEM-GXR cells are an immortalized CD4+ T-lymphocyte line engineered that naturally express the HIV-1 coreceptor CXCR4 and have been further engineered to express the HIV-1 co-receptor CCR5 and a Tat-driven LTR-GFP expression cassette. As such, intracellular GFP expression indicates HIV-1 infection [26]. Cultures of 10^5 CEM-GXR cells were seeded into 96-well plates with RPMI-1640 media (Sigma) supplemented with penicillin/streptomycin plus 20% fetal calf serum (R20+), infected with HIV-1 at a multiplicity of infection of 0.03 (to achieve 3% infected cells on Day 2), and incubated at 37°C and 5% CO2. 24 hours later, cells were pelleted at 750 g and resuspended in R20+ containing compound or 0.1% DMSO. […] Cells were then incubated at 37°C and 5% CO2 for an additional 72 h. 5,000 cells from each culture were measured for cell toxicity and GFP expression by flow cytometry. […] Background GFP expression in uninfected cultures was set at 0.05% GFP-positive cells. For each experiment, all data points were obtained in triplicate. All data are reported as the mean ± s.e.m. from at least 3 independent experiments performed with different virus stocks and/or performed on different days. […] EC50 and CC50 values for each compound were calculated from at least four concentrations. Statistical analyses were performed using Student’s unpaired t test, with a p value < 0.05 plus a Bonferroni correction to adjust for multiple comparisons considered significant.

Take `COc1cc2c(cc1O)C[C@H]1c3c(cc(O)c(OC)c3-2)CCN1C` [boldine]: the EC50 in the series with HIV-1RT was more than 100 µM. Besides, in the series with HIV-1RT (concentrations up to 75 or 100 μM, CEM-GXR cells), the “inhibition of HIV-1RT” value is reported as less than 50%. This compound returned a CC50 at 72 h in series [1] of more than 100 µM. Further, the “reduced HIV-1 replication in PBMCs (p24Gag)” value in the series with HIV-1NL4-3 (100 μM) was 47.0%. The IC50 in the series with hERG potassium channel is 19.3 µM. Further, the viability in series [2] was more than 85%.
Take `Oc1cc(O)c2c(c1)OC1(c3ccc(O)c(O)c3)Oc3c4c(c5c(c3C2C1O)OC1(c2ccc(O)c(O)c2)Oc2cc(O)cc(O)c2C5C1O)OC(c1ccc(O)c(O)c1)C(O)C4` (stereo not shown) [ixoratannin A-2]: the EC50 in the series with HIV-1RT was 33.7 µM. The same compound displayed a CC50 at 72 h in series [1] of 57.5 µM. For the same compound, in the series on HIV-1NL4-3 (25 μM), the “reduced HIV-1 replication in PBMCs (p24Gag)” value is given as 39.0%. Further, the viability in series [2] (PHA-activated PBMCs) is more than 85%.
